Measurements as given in ChEMBL document CHEMBL1201862, “PubChem BioAssay data set” (2004).
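Growth conditions: 96-well plates. Treatment: test compound, 48 hours, 5 concentrations. Analysis: linear interpolation between bracketing concentrations; unreached endpoints set to highest concentration. The concentration for 50% growth inhibition is given as GI50.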 Activity calls are given as the source filed them. No stated cut-off is given here; in the data, active = GI50 up to about 1.1 µM and inactive = higher.

Assays:
Experiment in all cases: inhibition of tumour cell growth, NCI panel, 48 h
[1] = tested on: Malme-3M
[2] = tested on: NCI-H23
[3] = tested on: SW-620
[4] = tested on: PC-3
[5] = tested on: K562
[6] = tested on: HCT-15
[7] = tested on: HL-60
[8] = tested on: OVCAR-5
[9] = tested on: BT-549
[10] = tested on: SN12C
[11] = tested on: A549
[12] = tested on: MDA-MB-435
[13] = tested on: SK-OV-3
[14] = tested on: Hs-578T
[15] = tested on: UACC-62
[16] = tested on: SF-539
[17] = tested on: M14
[18] = tested on: RPMI-8226
[19] = tested on: IGROV-1
[20] = tested on: TK-10
[21] = tested on: MDA-N
[22] = tested on: ACHN
[23] = tested on: SNB-75
[24] = tested on: MDA-MB-231
[25] = tested on: OVCAR-8
[26] = tested on: DU-145
[27] = tested on: UACC-257
[28] = tested on: HOP-92
[29] = tested on: CAKI-1
[30] = tested on: UO-31
[31] = tested on: RXF 393
[32] = tested on: KM12
[33] = tested on: LOX IMVI
[34] = tested on: OVCAR-3
[35] = tested on: EKVX
[36] = tested on: MOLT-4
[37] = tested on: CCRF-CEM
[38] = tested on: HT-29
[39] = tested on: NCI-H522
[40] = tested on: NCI-H460
[41] = tested on: U-251
[42] = tested on: SF-268
[43] = tested on: SK-MEL-2
[44] = tested on: T47D
[45] = tested on: SK-MEL-5
[46] = tested on: SK-MEL-28
[47] = tested on: 786-0
[48] = tested on: NCI-H226
[49] = tested on: HCT-116
[50] = tested on: A498
[51] = tested on: COLO 205
[52] = tested on: HOP-62
[53] = tested on: SF-295
[54] = tested on: SNB-19
[55] = tested on: NCI/ADR-RES
[56] = tested on: HCC 2998
[57] = tested on: SR
[58] = tested on: MCF7

CC1=NNC(=O)C1C1C=C(c2c[nH]c3ccccc23)OC1=O (stereo not drawn) was tested, and the GI50 [1] was > 100 µM (inactive), the GI50 [2] was > 100 µM (inactive) and the GI50 [3] was > 100 µM (inactive). The GI50 [4] was > 100 µM (inactive), the GI50 [5] was 62.4 µM (inactive) and the GI50 [6] was over 100 µM. The GI50 [7] was > 100 µM (inactive), the GI50 [8] was > 100 µM (inactive) and the GI50 [9] was > 100 µM (inactive). For the same molecule, the GI50 [10] was > 100 µM (inactive), the GI50 [11] was > 100 µM (inactive) and the GI50 [12] was > 100 µM (inactive). For the same molecule, the GI50 [13] was > 100 µM (inactive), the GI50 [14] was > 100 µM (inactive) and the GI50 [15] was > 100 µM (inactive). For the same molecule, the GI50 [16] was > 100 µM (inactive), the GI50 [17] was > 100 µM (inactive) and the GI50 [18] was 39.8 µM (inactive). For the same molecule, the GI50 [19] was 37 µM (inactive), the GI50 [20] was > 100 µM (inactive) and the GI50 [21] was > 100 µM (inactive). For the same molecule, the GI50 [22] was > 100 µM (inactive), the GI50 [23] was > 100 µM (inactive) and the GI50 [24] was > 100 µM (inactive). For the same molecule, the GI50 [25] was > 100 µM (inactive), the GI50 [26] was > 100 µM (inactive) and the GI50 [27] was > 100 µM (inactive). The GI50 [28] was > 100 µM (inactive), the GI50 [29] was > 100 µM (inactive) and the GI50 [30] was > 100 µM (inactive). For the same molecule, the GI50 [31] was > 100 µM (inactive), the GI50 [32] was 21.7 µM (inactive) and the GI50 [33] was > 100 µM (inactive). For the same molecule, the GI50 [34] was > 100 µM (inactive), the GI50 [35] was > 100 µM (inactive) and the GI50 [36] was > 100 µM (inactive). For the same molecule, the GI50 [37] was 59.6 µM (inactive), the GI50 [38] was > 100 µM (inactive) and the GI50 [39] was > 100 µM (inactive). For the same molecule, the GI50 [40] was > 100 µM (inactive), the GI50 [41] was > 100 µM (inactive) and the GI50 [42] was > 100 µM (inactive). The GI50 [43] was > 100 µM (inactive), the GI50 [44] was > 100 µM (inactive) and the GI50 [45] was > 100 µM (inactive). For the same molecule, the GI50 [46] was > 100 µM (inactive), the GI50 [47] was > 100 µM (inactive) and the GI50 [48] was > 100 µM (inactive). For the same molecule, the GI50 [49] was > 100 µM (inactive), the GI50 [50] was > 100 µM (inactive) and the GI50 [51] was > 100 µM (inactive). For the same molecule, the GI50 [52] was > 100 µM (inactive), the GI50 [53] was > 100 µM (inactive) and the GI50 [54] was > 100 µM (inactive). The GI50 [55] was > 100 µM (inactive).
For NCCCN(CCCN(C(=O)Nc1ccccc1)c1ccccc1)C(=O)Nc1ccccc1, the GI50 [1] was 20 µM (inactive), the GI50 [2] was 27.2 µM (inactive) and the GI50 [3] was 21.3 µM (inactive). The GI50 [4] was 33.7 µM (inactive), the GI50 [5] was 34.9 µM (inactive) and the GI50 [6] was 28.9 µM. For the same molecule, the GI50 [7] was 28.1 µM (inactive), the GI50 [8] was 43.2 µM (inactive) and the GI50 [9] was 31 µM (inactive). The GI50 [10] was 64.9 µM (inactive), the GI50 [11] was 47.1 µM (inactive) and the GI50 [13] was 45.6 µM (inactive). For the same molecule, the GI50 [14] was 32.7 µM (inactive), the GI50 [15] was 23.1 µM (inactive) and the GI50 [17] was 19.4 µM (inactive). For the same molecule, the GI50 [18] was 27.7 µM (inactive), the GI50 [19] was 51.1 µM (inactive) and the GI50 [56] was 25.6 µM (inactive). The GI50 [57] was 45 µM (inactive), the GI50 [20] was 38.4 µM (inactive) and the GI50 [58] was 35.1 µM (inactive). The GI50 [21] was 40.5 µM (inactive), the GI50 [22] was 55.7 µM (inactive) and the GI50 [23] was 23.2 µM (inactive). The GI50 [24] was 59.6 µM (inactive), the GI50 [25] was 49.3 µM (inactive) and the GI50 [26] was 36.8 µM (inactive). The GI50 [27] was 22 µM (inactive), the GI50 [28] was 27.2 µM (inactive) and the GI50 [30] was 20.8 µM (inactive). The GI50 [31] was 24.5 µM (inactive), the GI50 [33] was 23.5 µM (inactive) and the GI50 [35] was 58.7 µM (inactive). The GI50 [36] was 52 µM (inactive), the GI50 [37] was 59.2 µM (inactive) and the GI50 [38] was 29.8 µM (inactive). The GI50 [39] was 20.2 µM (inactive), the GI50 [40] was 31 µM (inactive) and the GI50 [41] was 36.6 µM (inactive). For the same molecule, the GI50 [42] was 32.6 µM (inactive), the GI50 [43] was 21.9 µM (inactive) and the GI50 [44] was 28.2 µM (inactive). The GI50 [45] was 18.5 µM (inactive), the GI50 [46] was 16.7 µM (inactive) and the GI50 [47] was 33 µM (inactive). The GI50 [48] was 44 µM (inactive), the GI50 [49] was 18.6 µM (inactive) and the GI50 [50] was 87.1 µM (inactive). For the same molecule, the GI50 [51] was 36.8 µM (inactive), the GI50 [52] was 25.1 µM (inactive) and the GI50 [53] was 23.2 µM (inactive). For the same molecule, the GI50 [54] was 52.4 µM (inactive) and the GI50 [55] was 69.5 µM (inactive).
